Reference: PMC6017089, “Discovery of a Manduca sexta Allatotropin Antagonist from a Manduca sexta Allatotropin Receptor Homology Model” (Molecules : A Journal of Synthetic Chemistry and Natural …, 2018)
Values joined by “and” are separate entries in the source; they are usually repeats but may differ in a detail not shown here. Equal entries are not always repeated. “Also recorded” adds a separate entry of the source. Non-standard residues stand in square brackets, D forms with d. Residues, ends and D or L forms follow the SMILES beside them. No end group written: not given here. *: point of attachment. Phe(4-Cl) = N[C@@H](Cc1ccc(Cl)cc1)C(=O)O; Phe(4-Me) = Cc1ccc(C[C@H](N)C(=O)O)cc1; Ala(cPr) = N[C@@H](CC1CC1)C(=O)O; Isobutyryl = CC(C)C(=O)*

What follows are compounds tested against T1, corpora allata (CA) of adult female M. sexta (Manduca sexta, UniProt F1CZQ1) (assay: Stimulation of JH biosynthesis in vitro by corpora allata). Conditions: concentration of 10 µM; adult female CA in vitro.
T1 sequence (F1CZQ1 1-457): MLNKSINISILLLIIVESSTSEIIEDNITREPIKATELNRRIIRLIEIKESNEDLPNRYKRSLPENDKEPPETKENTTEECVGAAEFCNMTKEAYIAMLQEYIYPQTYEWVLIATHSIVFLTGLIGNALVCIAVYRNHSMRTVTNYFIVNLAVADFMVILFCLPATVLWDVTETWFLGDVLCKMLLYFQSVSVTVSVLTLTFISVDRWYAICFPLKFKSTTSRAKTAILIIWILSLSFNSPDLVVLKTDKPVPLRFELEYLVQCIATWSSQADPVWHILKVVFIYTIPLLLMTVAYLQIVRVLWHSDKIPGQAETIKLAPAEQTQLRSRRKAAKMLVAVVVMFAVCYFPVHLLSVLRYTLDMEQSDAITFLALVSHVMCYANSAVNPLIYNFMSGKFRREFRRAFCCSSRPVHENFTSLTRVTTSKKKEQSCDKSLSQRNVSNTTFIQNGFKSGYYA
Format: cell-based
Experimental: (§1) On the day of adult emergence (day 0), females were marked and maintained in the wooden chamber until used. The assays for JH biosynthesis were performed using CA from day 3 females. A pair of CA with corpora cardiaca attached were incubated for 3 h at 30 °C in 100 µL of medium 199 (GIBCO) with Hanks’ salts, L-glutamine, 25 mM HEPES buffer (pH 7.2) and 2% Ficoll in the dark with gentle shaking. Compounds were dissolved in medium 199 for assay as described previously and used on the same day that the peptides were prepared. After incubation, 200 µl n-hexane containing 20 ng of citronellol as an internal standard was mixed with the incubation medium and the mixture was centrifuged at 2500× g for 5 min. The organic phases (upper layer) were removed and transferred to the analyzed vials. For M. sexta, it is known that JH II and JH III are predominantly made in adult (they contribute 99% of total JH, together). The change of total JH II and JH III titer was used to estimate the effects of JH biosynthesis in this study. The quantitative assay for JH II and JH III titer was determined by GC-MS/MS as described previously. The retention time of JH II and JH III was 11.16 min and 10.36 min, respectively. The quantification transition for JH II was 107→105.4 (collsion energy: 45 eV). Its confirmation transitions were 81→79.6 (collsion energy: 40 eV), 121→119 (collsion energy: 40 eV), 121→104.9 (collsion energy: 15 eV) and 121→92.9 (collsion energy: 10 eV), respectively. For JH III, the quantification transition was […] (collsion energy: 10 eV), the confirmation transitions were 81→79.1 (collsion energy: 5 eV), 94.9→67.1 (collsion energy: 10 eV), 120.9→93 (collsion energy: 10 eV) and 120.9→105.1 (collsion energy: 15 eV), respectively. Compounds were dissolved in medium 199 for assay and used on the same day that the peptides were prepared. Each data point on the dose-response figure represents replicate incubations of 9–13 experimental CA compared to control CA (i.e., no peptide added). EC50 (stimulator concentration50 defined as the concentration of stimulator that provokes a response halfway between the baseline and maximum response) values of Manse-AT and analogs were calculated from the dose-response curves.
(§2) Data presented as percentages were log-transformed before statistical analyses. Data were analysed using a one-way analysis of variance (ANOVA) with a Dunnett’s multiple comparison test as the post hoc determination of significance using Prism Graph Pad version 5.0 (GraphPad Software, San Diego, CA, USA). Dose-response curves were also prepared using the computer program GraphPad Prism. Values are expressed as mean ± standard errors (S.E.M.) with N indicating the number of samples measured.

Row | Compound | Stimulation of JH biosynthesis at 10 µM
1 | AMMTARGF-NH2 [Manse-AT (6–13) [Ala^1]] | completely inactive

Same assay, conditions: pair of CA with corpora cardiaca from day 3 females, 3 h at 30 °C in medium 199 pH 7.2; total JH II + JH III by GC-MS/MS; 9–13 repeats per concentration; 95% CI in brackets

Row | Compound | Stimulation of JH Biosynthesis EC50 (95% CI) | EC50
2 | C[C@H](N)C(=O)N[C@@H](CCCNC(=N)N)C(=O)NCC(=O)N[C@@H](Cc1ccccc1)C(N)=O [Manse-AT (10–13)] (H-ARGF-NH2) | cannot be calculated; also recorded: No effect | –
3 | AMMTARGF-NH2 [Manse-AT (6–13) [Ala^1]] | No effect | –
4 | Arg-Gly-Phe-NH2 [Manse-AT (11–13), truncated tripeptide analog of Manse-AT] | cannot be calculated; also recorded: No effect | –
5 | GFKNVEMMTARGF-NH2 [Manse-AT, Manduca sexta allatotropin] | – | 0.0009 µM
6 | H-EMMTARGF-NH2 [Manse-AT (6–13)] | – | 0.0184 µM
7 | H-MMTARGF-NH2 [Manse-AT (7–13)] | – | 0.18 µM and 0.228 µM
8 | H-MTARGF-NH2 [Manse-AT (8–13)] | – | 2.49 µM
9 | TARGFa [Manse-AT (9–13), truncated analog of Manse-AT] | cannot be calculated; also recorded: No effect | –

Same assay, conditions: peptide 1 μM; CA from day 3 females, 3 h at 30 °C; mean ± SEM, repeat number in brackets; versus control CA without peptide

Row | Compound | Stimulation of JH Biosynthesis: Stimulation at 1 μM
10 | C[C@H](N)C(=O)N[C@@H](CCCNC(=N)N)C(=O)NCC(=O)N[C@@H](Cc1ccccc1)C(N)=O [Manse-AT (10–13)] (H-ARGF-NH2) | 8.1± 17.6 (13) %
11 | Arg-Gly-Phe-NH2 [Manse-AT (11–13), truncated tripeptide analog of Manse-AT] | 8.3 ± 16.4 (9) %
12 | GFKNVEMMTARGF-NH2 [Manse-AT, Manduca sexta allatotropin] | 426.6 ± 86.3 (9) %
13 | H-EMMTARGF-NH2 [Manse-AT (6–13)] | 600% and 600.5 ± 98.5 (9) %
14 | H-MMTARGF-NH2 [Manse-AT (7–13)] | 232.9% and 232.9 ± 33.7 (9) %
15 | H-MTARGF-NH2 [Manse-AT (8–13)] | 133.1 ± 22.3 (9) %
16 | TARGFa [Manse-AT (9–13), truncated analog of Manse-AT] | 10.6 ± 21.0 (11) %

Same assay, conditions: ratio of EC50 values to Manse-AT

Row | Compound | fold less potent than Manse-AT (EC50, stimulation of JH biosynthesis)
17 | H-EMMTARGF-NH2 [Manse-AT (6–13)] | about 20 fold
18 | H-MMTARGF-NH2 [Manse-AT (7–13)] | 200 fold

What follows are compounds tested against T2, corpora allata (CA) of adult female M. sexta stimulated with Manse-AT (Manduca sexta, UniProt F1CZQ1) (assay: not given). Conditions: antagonist at varying concentrations mixed with 1 nM Manse-AT; CA from day 3 females, 3 h at 30 °C; JH II + JH III by GC-MS/MS; 9–13 repeats per concentration; 95% CI in brackets.
T2 sequence (F1CZQ1 1-457): T1 sequence (F1CZQ1 1-457)
Format: cell-based
Experimental: as §1
Antagonistic effects of Manse-AT antagonists were measured with the compound mixture solutions (varying concentrations of the antagonist added together with Manse-AT) compared with the stimulation effects of Manse-AT. Dose response curves of antagonist on the inhibition of JH stimulation of Manse-AT was obtained using different concentrations of antagonist mixed with 1 nM Manse-AT (Supplementary Materials, Figure S1). Each data point on the dose-response figure was calculated using the Formula (1). (RManse-AT − RMixture)/(RManse-AT − RControl) (1)
RManse-AT is the average JH biosynthesis rate of 1 nM Manse-AT, RMixture is the rate of mixture contained different concentration antagonist and 1 nM Manse-AT, RControl is the average rate of medium without any peptides.
as §2

Row | Compound | Antagonistic Effects on JH Biosynthesis IC50 (95% CI)
19 | Ala-Ala-Gly-Phe-NH2 [analog 5, Manse-AT (10–13) analog, Arg replaced with Ala] | no antagonistic effect
20 | Ala-Arg-Gly-Ala-NH2 [analog 9, Manse-AT (10–13) analog, Phe replaced with Ala] | inactive; also recorded: No effect
21 | Ala-Leu-Gly-Phe-NH2 [analog 6, Manse-AT (10–13) analog, Arg replaced with Leu] | no antagonistic effect
22 | Arg-Gly-Phe-NH2 [Manse-AT (11–13), truncated tripeptide analog of Manse-AT] | did not possess any antagonistic effect; also recorded: No effect

Same assay, conditions: antagonist at varying concentrations mixed with 1 nM Manse-AT; CA from day 3 females, 3 h at 30 °C; JH II + JH III by GC-MS/MS; 9–13 repeats per concentration; 95% CI in brackets; read-out: Antagonistic Effects on JH Biosynthesis IC50 (95% CI)

Row | Compound | IC50 [µM]
23 | CC(C)C(=O)N[C@@H](CCCNC(=N)N)C(=O)NCC(=O)N[C@@H](Cc1ccccc1)C(N)=O [analog 3] (Isobutyryl-Arg-Gly-Phe-NH2) | 0.0261

Same assay, conditions: ratio of IC50 values to Manse-AT (10–13)

Row | Compound | fold less active than the lead Manse-AT (10–13) (IC50, antagonistic effect) [fold]
24 | CC(C)C(=O)N[C@@H](CCCNC(=N)N)C(=O)NCC(=O)N[C@@H](Cc1ccccc1)C(N)=O [analog 3] (Isobutyryl-Arg-Gly-Phe-NH2) | ~30
25 | C[C@H](N)C(=O)N[C@@H](CCCNC(=N)N)C(=O)N[C@@H](CC1CC1)C(=O)N[C@@H](Cc1ccccc1)C(N)=O [analog 8] (H-AR[Ala(cPr)]F-NH2) | ~1145

Same assay, conditions: read-out: Antagonistic Effects on JH Biosynthesis IC50 (95% CI); antagonist at varying concentrations mixed with 1 nM Manse-AT; CA from day 3 females, 3 h at 30 °C; JH II + JH III by GC-MS/MS; 9–13 repeats per concentration; 95% CI in brackets

Row | Compound | IC50 [µM]
26 | C[C@H](N)C(=O)N[C@@H](CCCNC(=N)N)C(=O)NCC(=O)N[C@@H](Cc1ccccc1)C(N)=O [Manse-AT (10–13)] (H-ARGF-NH2) | 0.0009
27 | N=C(N)NCCC[C@H](NC(=O)CN)C(=O)NCC(=O)N[C@@H](Cc1ccccc1)C(N)=O [analog 1] (H-GRGF-NH2) | 0.0012
28 | CC(C)C[C@H](N)C(=O)N[C@@H](CCCNC(=N)N)C(=O)NCC(=O)N[C@@H](Cc1ccccc1)C(N)=O [analog 2] (H-LRGF-NH2) | 0.0354
29 | C[C@H](N)C(=O)N[C@@H](CCCNC(=N)N)C(=O)N[C@@H](C)C(=O)N[C@@H](Cc1ccccc1)C(N)=O [analog 7] (H-ARAF-NH2) | 0.0175
30 | C[C@H](N)C(=O)N[C@@H](CCCNC(=N)N)C(=O)NCC(=O)N[C@@H](Cc1ccc(O)cc1)C(N)=O [analog 10] (H-ARGY-NH2) | 0.001
31 | Cc1ccc(C[C@H](NC(=O)CNC(=O)[C@H](CCCNC(=N)N)NC(=O)[C@H](C)N)C(N)=O)cc1 [analog 11] (H-ARG[Phe(4-Me)]-NH2) | 0.0084
32 | C[C@H](N)C(=O)N[C@@H](CCCNC(=N)N)C(=O)NCC(=O)N[C@@H](Cc1ccc(Cl)cc1)C(N)=O [analog 12] (H-ARG[Phe(4-Cl)]-NH2) | 0.0094
